Test results as given in article PMC1890308, “Anti-calmodulins and Tricyclic Adjuvants in Pain Therapy Block the TRPV1 Channel” (PLoS ONE, 2007).
Several values for one entry are separate records, joined by “and”; a condition that tells them apart may be missing. Identical values can stand only once. Entries after “also recorded” stand apart in the source; their conditions may differ. Like-named read-outs stand apart in the source and are kept apart here. Ends that are not written are not given here.

Legend:
[1] = biological target: T1, rat TRPV1 (Rattus norvegicus, UniProt O35433); test: capsaicin-induced 45Ca2+-uptake in TRPV1-NIH3T3 cells; assay type: cell-based; conditions: for antagonist activity on capsaicin-induced Ca2+-uptake (in words) / IC50: 2 µM capsaicin; for IC50: 10 min, 2×10^−5 M extracellular Ca2+, room temperature; for effect on Ca2+-uptake at low concentrations in the presence of capsaicin: 2 mM capsaicin (so in the source); for kinetics of Ca2+-transport inhibition: increasing concentrations of capsaicin
T1 construct: expressed in transfected cells
Procedure: Assays were carried out in 2×10^−5 M extracellular Ca^2+ in 96 well plate formats at room temperature (22°C) for 10 min with robotic liquid handling. […] We hypothesized that calmodulin antagonists and some registered drugs may exert their blocking effect with another mechanisms on TRPV1 and not necessarily on their conventional target.
TRPV1-NIH3T3 mouse fibroblast line, ectopically expressing the rat TRPV1 was established previously.
(§1) Vanilloid agonist inducible calcium transport was assayed in adherent cell lines ectopically expressing the C-terminally ε-tagged rat TRPV1 (3×10^4 cells/well) and primary cultures prepared from embryonic DRG, seeded in poly-D lysine/collagen coated 96 well plates. […] The previously established cell lines and standardized DRG cultures were extensively characterized for functional cell-based TRPV1 studies [1]–[4]. Immediately before the transport assay, cells were adapted to room temperature (20°C) for 5 min in HCM. ^45Ca^2+-uptake was performed for 10 min at 20°C in HCM using 0.1 µCi ^45Ca^2+ as radioactive tracer in a 100 µl final volume. To stop ^45Ca^2+-uptake, cells were rapidly changed back into 0.2 ml HCM, washed 4 additional times with 0.2 ml HCM, and then lysed in 80 µl/well RIPA buffer (50 mM Tris-HCl, pH 7.5, 150 mM NaCl, 1% Triton X-100, 0.5% deoxycholate, 0.1% SDS, 5 mM EDTA) for 30 min [1]–[4]. Aliquots of the solubilized cell extracts were mixed with 120 µl Microscint-40 and counted in a 96 well plate liquid scintillation counter (TopCount-NXT, Packard).

[2] = biological target: TRPV1 (Rattus norvegicus, UniProt O35433); test: capsaicin-induced 45Ca2+-uptake in primary rat embryonic DRG cultures; assay type: cell-based; set-up: sensory neurons, expressing TRPV1 endogenously; endogenous in cells; host or cells: primary cultures of embryonic rat dorsal root ganglia (E14, E16); conditions: rat embryonic DRG cultures
Procedure: Primary cultures were prepared from embryonic (E14) rat DRGs. Along with calmidazolium other polycyclic compounds were included in the vanilloid-induced ^45Ca^2+-transport assays.
Primary DRG cultures were prepared from E16 embryonic rats as described previously then plated in 15 cm Petri dishes for 4 h to remove the most adherent fibroblasts. For Ca^2+-uptake studies primary afferents neurons cultured in 96 well plates (3×10^3 cells/well), coated with poly-D lysine/collagen, which yielded both axons and dendrites bearing neurons due to neuronal growth factor supplementation in the culture medium [1]–[4]. The dendrites are large processes branching from the cell body that taper in diameter further from the cell body. The axons are a constant diameter and project over long distances from the cell body. Before the ion transport experiment, culture medium was removed and cells were washed three times. ^45Ca-uptake assays were carried out in “nominally zero Ca^2+” (i.e. 2×10^−5 M extracellular Ca^2+ ([Ca^2+]o) in 25 mM Tris-HCl buffered Hanks' balanced salt solution (pH 7.5), supplemented with 10 µM CaCl2 and 0.8 mM MgCl2medium (HCM) [1]–[4].
as §1

[3] = biological target: rat TRPV1 (vanilloid inducible Ca2+-channel/inflammatory pain receptor 1), C-terminally ε-tagged, in TRPV1-NIH3T3 cells (rat) (UniProt O35433)
[4] = biological target: rat TRPV1 (vanilloid inducible Ca2+-channel/inflammatory pain receptor 1), C-terminally ε-tagged, in TRPV1-NIH3T3 cells (rat) (UniProt O35433); remark: listed apart in the source
[5] = tested on: heat-induced tail-flick; set-up: method as in PMID 8883861; conditions: cited from earlier work
[6] = tested on: formalin-induced pain; set-up: method as in PMID 8883861; conditions: rat, intrathecal; cited from earlier work
[7] = tested on: intermediate Ca2+-activated K+ channels (IKCa); conditions: human erythrocytes; cited from earlier work
[8] = read-out: IC50, inhibition of capsaicin-induced 45Ca2+-uptake

TRPV1, sequence (O35433 whole entry): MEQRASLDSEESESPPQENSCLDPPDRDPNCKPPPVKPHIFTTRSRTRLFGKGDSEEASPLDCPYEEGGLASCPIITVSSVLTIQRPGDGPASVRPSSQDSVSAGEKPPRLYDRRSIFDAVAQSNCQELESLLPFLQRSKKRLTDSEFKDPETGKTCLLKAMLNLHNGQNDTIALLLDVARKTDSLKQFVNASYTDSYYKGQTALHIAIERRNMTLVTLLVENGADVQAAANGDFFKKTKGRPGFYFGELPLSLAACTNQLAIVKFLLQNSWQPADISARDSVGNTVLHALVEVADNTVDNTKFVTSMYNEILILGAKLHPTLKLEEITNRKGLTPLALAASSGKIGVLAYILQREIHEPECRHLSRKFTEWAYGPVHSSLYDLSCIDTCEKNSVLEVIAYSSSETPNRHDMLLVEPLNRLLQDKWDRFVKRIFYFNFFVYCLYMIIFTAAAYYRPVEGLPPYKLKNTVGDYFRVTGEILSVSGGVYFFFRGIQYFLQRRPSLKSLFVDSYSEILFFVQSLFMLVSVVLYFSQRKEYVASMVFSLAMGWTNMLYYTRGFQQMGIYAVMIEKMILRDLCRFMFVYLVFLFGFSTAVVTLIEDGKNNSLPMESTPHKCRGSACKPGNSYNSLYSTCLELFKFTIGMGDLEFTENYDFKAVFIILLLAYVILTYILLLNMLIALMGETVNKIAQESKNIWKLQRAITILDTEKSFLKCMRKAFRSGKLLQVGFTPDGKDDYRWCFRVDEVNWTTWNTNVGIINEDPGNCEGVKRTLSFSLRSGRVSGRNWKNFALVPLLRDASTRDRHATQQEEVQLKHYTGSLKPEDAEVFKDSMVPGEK
T1 sequence (O35433 whole entry): as above
rat TRPV1 (vanilloid inducible Ca2+-channel/inflammatory pain receptor 1), C-terminally ε-tagged, in TRPV1-NIH3T3 cells (rat), sequence (O35433 whole entry): as above

NCC1(CC(=O)O)CCCCC1 [gabapentine]
antagonist activity on capsaicin-induced Ca2+-uptake (in words) [1]: partial inhibition

O=C1CSC(c2ccccc2Cl)c2cc(Cl)ccc2N1 (stereo not drawn) [CGP-37157, 7-Chloro - 5 - (2 - chlorophenyl) - 1,5 - dihydro - 4,1 – benzothiazepin - 2(3H) - one]
blocking activity on capsaicin-induced Ca2+-uptake (in words) [2]: partially active | blocking activity on capsaicin-induced Ca2+-uptake (in words) ([2]; listed as CGP 37157): partial blocking activity

Camstatin (peptide)
inhibition of capsaicin-induced Ca2+-uptake in TRPV1-NIH3T3 cells [3]: 20 µM | inhibition of capsaicin (2 µM)-induced 45Ca2+-uptake in intact TRPV1-NIH3T3 cells, 10 min, camstatin co-incubated in the uptake medium [4]: 11 µM

NCCCCCCNS(=O)(=O)c1cccc2c(Cl)cccc12 [W-7, N- 6 – aminohexyl – 5 – chloro - 1 naphtalenesulfonamide]
effect on heat-induced tail-flick latency [5]: inhibit | analgesia in both phases of formalin tests [6]: analgesic | antagonist activity on capsaicin-induced Ca2+-uptake (in words) [1]: partial or weak inhibitors | IC50 [1, 8]: ~200 µM | effect on Ca2+-uptake at low concentrations in the presence of capsaicin [1]: increased Ca^2+-uptake | activity on IKCa channels (in words) [7]: inactive

Fc1ccc(C(c2ccc(F)cc2)N2CCN(C/C=C/c3ccccc3)CC2)cc1 [flunarizine]
blocking activity on capsaicin-induced Ca2+-uptake (in words) [2]: partially active; also recorded: partial blocking activity

Fc1cc(F)cc(C[n+]2ccn(CC(OCc3ccc(Cl)cc3Cl)c3ccc(Cl)cc3Cl)c2)c1 (stereo not drawn) [M1, Miconazole 1]
IC50 [1, 8]: 8 µM

CN(C)CCCN1c2ccccc2Sc2ccc(Cl)cc21 [chlorpromazine]
antagonist activity on capsaicin-induced Ca2+-uptake (in words) [1]: full antagonists | IC50 [1, 8]: 70 µM | kinetics of Ca2+-transport inhibition [1]: non-competitive inhibition kinetics

CN1CCN(CCCN2c3ccccc3Sc3ccc(C(F)(F)F)cc32)CC1 [trifluoperazine]
antagonist activity on capsaicin-induced Ca2+-uptake (in words) [1]: full antagonists | IC50 [1, 8]: 9 µM and < 10 µM | activity on IKCa channels (in words) [7]: inactive

CN(C)CCC=C1c2ccccc2CCc2ccccc21 [amitriptyline]
IC50 [1, 8]: ~60 µM and 60 µM

NCCCCNS(=O)(=O)c1ccc2c(Cl)cccc2c1 [W-13, N - (4 - Aminobutyl) – 5 - chloro-2-naphthalenesulfonamide]
antagonist activity on capsaicin-induced Ca2+-uptake (in words) [1]: partial or weak inhibitors | IC50 [1, 8]: > 300 µM | effect on Ca2+-uptake at low concentrations in the presence of capsaicin [1]: increased Ca^2+-uptake

Oc1cc2c(cc1O)CN(C(=S)NCCc1ccc(Cl)cc1)CCC2 [capsazepine]
kinetics of Ca2+-transport inhibition [1]: shifted the capsaicin dose-response curves right

Clc1ccc(COC(Cn2cc[n+](CC3CCCCC3)c2)c2ccc(Cl)cc2Cl)c(Cl)c1 (stereo not drawn) [M2, Miconazole 2]
IC50 [1, 8]: 8 µM

APETERAAVAIQAQFRKFQKKKAGS [camstatin]
IC50 ([1]; IC50, inhibition of capsaicin-induced 45Ca2+-uptake): 11 µM and 20 µM

OCCN1CCN(CCCN2c3ccccc3Sc3ccc(C(F)(F)F)cc32)CC1 [fluphenazine]
antagonist activity on capsaicin-induced Ca2+-uptake (in words) [1]: partial or weak inhibitors | IC50 [1, 8]: ~250 µM | effect on Ca2+-uptake at low concentrations in the presence of capsaicin [1]: increased Ca^2+-uptake

COc1cc(CNC(=O)CCCC/C=C/C(C)C)ccc1O [capsaicin]
ED100 for capsaicin-induction ([1]; pH 7.5): ~1 µM

N=C(N)NCCC[C@H](NC(=O)COCC(c1ccccc1)c1ccccc1)C(=O)O [SB 290157, N2-[(2,2-Diphenylethoxy)acetyl]-L-arginine]
blocking activity on capsaicin-induced Ca2+-uptake (in words) [2]: partial blocking activity

NC(=O)N1c2ccccc2C=Cc2ccccc21 [carbamazepine]
antagonist activity on capsaicin-induced Ca2+-uptake (in words) [1]: inactive | antagonist activity on capsaicin-induced Ca2+-uptake (in words) ([1]; listed as Carbamazepine): completely inactive
